Results reported in US10988459B2 (priority 2015, dated 2021).
pKi: −log10 of the molar value.

molecular target: human RIP1 kinase domain (2-375) (Homo sapiens (Human), UniProt Q13546); assay: biochemical; format: biochemical; settings: Table 1; apparent Ki (Morrison tight-binding fit); 50 nM RIP1 kinase domain, 50 uM ATP, 2 hours incubation; read-out: RIP1 Ki
Procedure, shortened: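 Ki^app comes from Morrison tight-binding fits of fractional activity versus compound concentration. Activity was read as ADP production, via tracer displacement lowering fluorescence polarization (633 nm laser). Conditions: 2 h, 50 nM insect-cell-expressed enzyme, 50 uM ATP, 30 mM MgCl2, 1 mM DTT, 0.5% DMSO, pH 7.5 Hepes.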

human RIP1 kinase domain (2-375), sequence (Q13546 2-375): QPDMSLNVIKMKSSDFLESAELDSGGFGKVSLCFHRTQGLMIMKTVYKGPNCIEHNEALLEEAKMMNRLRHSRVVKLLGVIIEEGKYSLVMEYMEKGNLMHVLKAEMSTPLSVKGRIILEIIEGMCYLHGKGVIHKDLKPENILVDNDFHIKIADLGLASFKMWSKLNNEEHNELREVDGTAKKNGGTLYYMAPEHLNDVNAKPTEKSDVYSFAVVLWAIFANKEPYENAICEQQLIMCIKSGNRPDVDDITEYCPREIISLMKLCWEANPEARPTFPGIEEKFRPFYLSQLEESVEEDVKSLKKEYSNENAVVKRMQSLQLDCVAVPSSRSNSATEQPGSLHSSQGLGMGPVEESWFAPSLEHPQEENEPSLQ

`CC1CCc2onc(C(=O)N[C@H]3COc4ccccc4NC3=O)c2C1` (stereo partly drawn) [Example 63, 5-methyl-N-((S)-4-oxo-2,3,4,5-tetrahydrobenzo[b][1,4]oxazepin-3-yl)-4,5,6,7-tetrahydrobenzo[d]isoxazole-3-carboxamide] showed a pKi of 6.13.

same assay, conditions: Table 5; apparent Ki (Morrison tight-binding fit); 50 nM RIP1 kinase domain, 50 uM ATP, 2 hours incubation; read-out: Ki

Compared with `CN1C(=O)[C@@H](NC(=O)c2cc3c(cn2)CO[C@]3(C)C(F)(F)F)COc2ccccc21` [Example 742, (1S)-1-methyl-N-[(3S)-5-methyl-4-oxo-2,3-dihydro-1,5-benzoxazepin-3-yl]-1-(trifluoromethyl)-3H-furo[3,4-c]pyridine-6-carboxamide], `COCCOCCc1cc2n(n1)CC[C@H](NC(=O)c1ncn(Cc3ccccc3)n1)C(=O)N2C` [Example 755, 1-benzyl-N-[(6S)-2-[2-(2-methoxyethoxy)ethyl]-4-methyl-5-oxo-7,8-dihydro-6H-pyrazolo[1,5-a][1,3]diazepin-6-yl]-1,2,4-triazole-3-carboxamide] is 1.09 log units lower in pKi: 8.00 for the first, 6.91 for the second. The first binds more tightly here.

same assay, conditions: human RIP1 kinase domain (2-375), 50 uM ATP, 2 hours incubation, Transcreener ADP assay; read-out: RIP1 Ki

Compared with `CN1C(=O)C(NC(=O)c2cn(Cc3ccccc3)nn2)CCn2nc(-c3ccccc3)cc21` (stereo not drawn) [Example 216, 1-benzyl-N-(4-methyl-5-oxo-2-phenyl-5,6,7,8-tetrahydro-4H-pyrazolo[1,5-a][1,3]diazepin-6-yl)-1H-1,2,3-triazole-4-carboxamide], `CN1C(=O)C(NC(=O)c2cn(Cc3ccccc3)nn2)CCn2ccnc21` (stereo not drawn) [Example 196, 1-benzyl-N-(9-methyl-8-oxo-6,7,8,9-tetrahydro-5H-imidazo[1,2-a][1,3]diazepin-7-yl)-1H-1,2,3-triazole-4-carboxamide] is 0.54 log units lower in pKi: 7.01 for the first, 6.47 for the second.

`CN1C(=O)[C@@H](NC(=O)c2n[nH]c3c2CC2(CC3)CC2(F)F)COc2ccccc21` (stereo partly drawn) [Example 189, 2,2-difluoro-N—((S)-5-methyl-4-oxo-2,3,4,5-tetrahydrobenzo[b][1,4]oxazepin-3-yl)-1′,4′,6′,7′-tetrahydrospiro[cyclopropane-1,5′-indazole]-3′-carboxamide] and `CN1C(=O)[C@@H](NC(=O)c2n[nH]c3c2CC2(CC3)CC2)COc2ccccc21` [Example 174, (S)—N-(5-methyl-4-oxo-2,3,4,5-tetrahydrobenzo[b][1,4]oxazepin-3-yl)-1′,4′,6′,7′-tetrahydrospiro[cyclopropane-1,5′-indazole]-3′-carboxamide] are within 0.2 log units of each other in pKi: 6.59 for the first, 6.78 for the second.

Compared with `Cc1cc2n(n1)CC[C@H](NC(=O)c1ncn([C@H](C)c3ccccc3)n1)C(=O)N2C` [Example 158, N-((S)-2,4-dimethyl-5-oxo-5,6,7,8-tetrahydro-4H-pyrazolo[1,5-a][1,3]diazepin-6-yl)-1-((R)-1-phenylethyl)-1H-1,2,4-triazole-3-carboxamide], `CN1C(=O)C(NC(=O)c2ncn(Cc3ccccc3)n2)CCn2nc3ccccc3c21` (stereo not drawn) [Example 110, 1-benzyl-N-(1-methyl-2-oxo-2,3,4,5-tetrahydro-1H-[1,3]diazepino[1,2-b]indazol-3-yl)-1H-1,2,4-triazole-3-carboxamide] is 1.18 log units higher in pKi: 6.01 for the first, 7.19 for the second. The second binds more tightly here.

First: CN1C(=O)[C@@H](NC(=O)c2n[nH]c3c2C[C@@H](C(F)(F)F)CC3)COc2c1cnn2C [Example 188, (S)—N—((S)-1,4-dimethyl-5-oxo-4,5,6,7-tetrahydro-1H-pyrazolo[3,4-b][1,4]oxazepin-6-yl)-5-(trifluoromethyl)-4,5,6,7-tetrahydro-1H-indazole-3-carboxamide]
Second: CC1CCn2nnc(C(=O)N[C@H]3COc4ccccc4N(C)C3=O)c2C1 (stereo partly drawn) [Example 187, 5-methyl-N—((S)-5-methyl-4-oxo-2,3,4,5-tetrahydrobenzo[b][1,4]oxazepin-3-yl)-4,5,6,7-tetrahydro-[1,2,3]triazolo[1,5-a]pyridine-3-carboxamide]
The pKi of the first is 1.33 log units lower: 5.35 for the first, 6.68 for the second.

Compound `CN1C(=O)C(NC(=O)c2nnc(Cc3ccccc3)[nH]2)CCn2nc3c(c21)CS(=O)(=O)C3` (stereo not drawn) [Example 141, 5-benzyl-N-(1-methyl-9,9-dioxido-2-oxo-1,2,3,4,5,10-hexahydro-8H-thieno[3′,4′:3,4]pyrazolo[1,5-a][1,3]diazepin-3-yl)-4H-1,2,4-triazole-3-carboxamide] has a pKi of 6.26.

same assay, conditions: human RIP1 kinase domain (2-375), Transcreener ADP assay, 50 uM ATP, 2 hours incubation; read-out: RIP1 Ki

Compared with `CN1C(=O)[C@@H](NC(=O)c2ncn(Cc3cccc(F)c3F)n2)CCn2nc(C3CC3)cc21` [Example 331, (S)—N-(2-cyclopropyl-4-methyl-5-oxo-5,6,7,8-tetrahydro-4H-pyrazolo[1,5-a][1,3]diazepin-6-yl)-1-(2,3-difluorobenzyl)-1H-1,2,4-triazole-3-carboxamide], `CN1C(=O)C(NC(=O)c2cn(Cc3ccccc3)nn2)CCn2nc(C3CCOCC3)cc21` (stereo not drawn) [Example 237, 1-benzyl-N-(4-methyl-5-oxo-2-(tetrahydro-2H-pyran-4-yl)-5,6,7,8-tetrahydro-4H-pyrazolo[1,5-a][1,3]diazepin-6-yl)-1H-1,2,3-triazole-4-carboxamide] is 2.04 log units lower in pKi: 7.89 for the first, 5.85 for the second. The first binds more tightly here.

Work on `CN1C(=O)C(NC(=O)c2cn(Cc3ccccc3)nn2)CCn2cncc21` (stereo not drawn) [Example 295, 1-benzyl-N-(1-methyl-2-oxo-2,3,4,5-tetrahydro-1H-imidazo[1,5-a][1,3]diazepin-3-yl)-1H-1,2,3-triazole-4-carboxamide] yielded a pKi of 6.93.

same assay, conditions: tight-binding apparent inhibition constant; human RIP1 kinase domain (2-375) 50 nM, 50 uM ATP, 2 hours; read-out: Ki

Compared with `O=C(N[C@H]1CCc2cc(F)cc(F)c2NC1=O)c1nc2n(n1)CCO[C@H]2c1ccccc1F` [Example 630, (8S)-8-(2-fluorophenyl)-N-[(3S)-7,9-difluoro-2-oxo-1,3,4,5-tetrahydro-1-benzazepin-3-yl]-6,8-dihydro-5H-[1,2,4]triazolo[5,1-c][1,4]oxazine-2-carboxamide], `CN1C(=O)[C@@H](NC(=O)c2nc3n(n2)CCO[C@@H]3c2ccccc2F)COc2ccccc21` [Example 629, (8R)-8-(2-fluorophenyl)-N-[(3S)-5-methyl-4-oxo-2,3-dihydro-1,5-benzoxazepin-3-yl]-6,8-dihydro-5H-[1,2,4]triazolo[5,1-c][1,4]oxazine-2-carboxamide] is 0.33 log units higher in pKi: 7.52 for the first, 7.85 for the second. The second binds more tightly here.

Going from `Cc1cc2n(n1)CC[C@H](NC(=O)c1ncc3cnn(C(C)C)c3n1)C(=O)N2C` [Example 539, 1-isopropyl-N-[(6S)-2,4-dimethyl-5-oxo-7,8-dihydro-6H-pyrazolo[1,5-a][1,3]diazepin-6-yl]pyrazolo[3,4-d]pyrimidine-6-carboxamide] to `Cc1cc2n(n1)CC[C@H](NC(=O)c1nc3n(n1)CC[C@H]3c1ccccc1)C(=O)N2C` (racemic) [Example 575, (7S)-7-phenyl-N-[(6S)-2,4-dimethyl-5-oxo-7,8-dihydro-6H-pyrazolo[1,5-a][1,3]diazepin-6-yl]-6,7-dihydro-5H-pyrrolo[1,2-b][1,2,4]triazole-2-carboxamide], the pKi rises from 6.82 to 7.55 (0.73 log units).

Compared with `CCc1cc2n(n1)CCC(NC(=O)c1ncn(Cc3ccccc3F)n1)C(=O)N2C` (stereo not drawn) [Example 463, N-(2-Ethyl-4-methyl-5-oxo-5,6,7,8-tetrahydro-4H-pyrazolo[1,5-a][1,3]diazepin-6-yl)-1-(2-fluorobenzyl)-1H-1,2,4-triazole-3-carboxamide], `CN1C(=O)[C@@H](NC(=O)c2ncn(Cc3ccc(F)cc3F)n2)CCn2nc(C(F)(F)F)cc21` [Example 529] is 0.20 log units higher in pKi: 7.35 for the first, 7.55 for the second.

Going from `CC(C)C1CCc2nc(C(=O)N[C@H]3CCn4nccc4N(C)C3=O)nn21` (stereo partly drawn) [Example 346, 5-isopropyl-N-[(6S)-4-methyl-5-oxo-7,8-dihydro-6H-pyrazolo[1,5-a][1,3]diazepin-6-yl]-6,7-dihydro-5H-pyrrolo[1,2-b][1,2,4]triazole-2-carboxamide] to `CN1C(=O)[C@@H](NC(=O)c2nc3n(n2)CCC3c2ccccc2)CCn2nccc21` (stereo partly drawn) [Example 579, 7-phenyl-N-[(6S)-4-methyl-5-oxo-7,8-dihydro-6H-pyrazolo[1,5-a][1,3]diazepin-6-yl]-6,7-dihydro-5H-pyrrolo[1,2-b][1,2,4]triazole-2-carboxamide], the pKi rises from 6.76 to 7.43 (0.67 log units). The second binds more tightly here.

First: Cc1ncccc1Cn1cnc(C(=O)N[C@H]2CCn3nc(C4CC4)cc3N(C)C2=O)n1 [Example 665]
Second: CN1C(=O)[C@@H](NC(=O)c2ncn(Cc3ccccc3)n2)CCn2nc(CCCN3CCOCC3)cc21 [Example 662]
The pKi of the first is 1.07 log units lower: 6.13 for the first, 7.20 for the second. The second binds more tightly here.

First: CN1C(=O)[C@@H](NC(=O)c2nc3n(n2)CCC32CCOC2)COc2ccccc21 (stereo partly drawn) [Example 645, N-[(3S)-5-methyl-4-oxo-2,3-dihydro-1,5-benzoxazepin-3-yl]spiro[5,6-dihydropyrrolo[1,2-b][1,2,4]triazole-7,3′-tetrahydrofuran]-2-carboxamide]
Second: CN1C(=O)[C@@H](NC(=O)c2nc3n(n2)[C@H](C(F)(F)F)CCC3)COc2ccccc21 (racemic) [Example 426, (S)—N—((S)-5-methyl-4-oxo-2,3,4,5-tetrahydrobenzo[b][1,4]oxazepin-3-yl)-5-(trifluoromethyl)-5,6,7,8-tetrahydro-[1,2,4]triazolo[1,5-a]pyridine-2-carboxamide]
The pKi of the first is 1.94 log units lower: 5.92 for the first, 7.86 for the second.

`CN1C(=O)[C@@H](NC(=O)c2nc3c(-c4ccccc4)cccn3n2)COc2ccccc21` [Example 568, 8-phenyl-N-[(3S)-5-methyl-4-oxo-2,3-dihydro-1,5-benzoxazepin-3-yl]-[1,2,4]triazolo[1,5-a]pyridine-2-carboxamide] and `CCC[C@]1(C)OCc2cnc(C(=O)N[C@H]3COc4ccccc4N(C)C3=O)nc21` (mixture of isomers) [Example 683, (7S)-7-methyl-7-propyl-N-[rac-(3S)-5-methyl-4-oxo-2,3-dihydro-1,5-benzoxazepin-3-yl]-5H-furo[3,4-d] pyrimidine-2-carboxamide] are within 0.2 log units of each other in pKi: 8.09 for the first, 7.96 for the second.

`Cc1cc2n(n1)CC[C@H](NC(=O)c1cc3c(cn1)COC31CCCOC1)C(=O)N2C` (stereo partly drawn) [Example 545, N-[(6S)-2,4-dimethyl-5-oxo-7,8-dihydro-6H-pyrazolo[1,5-a][1,3]diazepin-6-yl]spiro[3H-furo[3,4-c]pyridine-1,3′-tetrahydropyran]-6-carboxamide] was tested, and the pKi was 5.68.
